Laboratory results from patent publication US6350907B1, “Matrix metalloprotease inhibitors” (Pfizer Inc, priority 1998, dated 2002).
pIC50: −log10 of the molar value.

Legend:
keratinocyte migration = conditions: in vitro; cited from earlier work
MMP-3 = biological target: T1, MMP-3 (Homo sapiens, UniProt P08254); test: Inhibition of MMP-3, cleavage of fluorogenic peptide; type: biochemical
T1 construct: Catalytic domain MMP-2, MMP-3 and MMP-9 were prepared at Pfizer Central Research; made in house
T1 sequence (P08254 100-272 limits assumed): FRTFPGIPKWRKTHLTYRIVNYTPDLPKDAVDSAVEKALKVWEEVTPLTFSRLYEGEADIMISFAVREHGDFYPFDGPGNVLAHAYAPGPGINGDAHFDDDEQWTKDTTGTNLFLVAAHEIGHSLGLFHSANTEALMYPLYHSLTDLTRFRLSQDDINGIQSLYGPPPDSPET
Experimental: (§1) The ability of compounds to inhibit the cleavage of fluorogenic peptides by MMPs 1, 2, 3, 9 12, 13 and 14 is described below.
(§2) Catalytic domain MMP-2, MMP-3 and MMP-9 were prepared at Pfizer Central Research. […] MMP-3 was activated by the addition of 2 mM APMA, followed by incubation for 3 hours at 37° C. The enzymes were then diluted in Tris-HCl assay buffer (100 mM Tris, 100 mM NaCl, 10 mM CaCl2 and 0.16% Brij 35, pH 7.5), to a concentration of 10 nM. The final concentration of enzyme used in the assays was 1 nM.
The final substrate concentration used in the assay was 5 μM.
(§3) (iii) Determination of Enzyme Inhibition
Test compounds were dissolved in dimethyl sulphoxide and diluted with test buffer solution (as above) so that no more than 1% dimethyl sulphoxide was present. Test compound and enzyme were added to each well of a 96 well plate and allowed to equilibrate for 15 minutes at 37° C. in an orbital shaker prior to the addition of substrate.

MMP-12 = biological target: T2, MMP-12 (Homo sapiens, UniProt P39900); test: Inhibition of MMP-12 (Human Macrophage Elastase), cleavage of fluorogenic peptide; type: biochemical; conditions: x = 12; read-out: MMP-12 inhibitor IC50
T2 construct: Catalytic domain MMP-12 (200 μg/ml) was used
T2 sequence (P39900 106-263 limits assumed): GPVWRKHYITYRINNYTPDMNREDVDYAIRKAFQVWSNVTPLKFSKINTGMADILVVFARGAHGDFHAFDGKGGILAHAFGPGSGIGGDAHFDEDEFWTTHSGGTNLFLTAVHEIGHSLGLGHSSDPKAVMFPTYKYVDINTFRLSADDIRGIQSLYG
Experimental: as §1
Inhibition of MMP-12 (Human Macrophage Elastase)
Catalytic domain MMP-12 (200 μg/ml) was used. MMP-12 was diluted in Tris-HCl assay buffer (50 mM Tris, 200 mM NaCl, 5 mM CaCl2, 20 μM ZnSO4, 0.02% Brij 35) pH 7.4 to 240 ng/ml. The final concentration of enzyme used in the assay was 60 ng/ml.
The fluorogenic substrate used in this assay was DNP-Pro-Cha-Gly-Cys(Me)-His-Ala-Lys(NMA)-NH2. The final substrate concentration used in the assay was 10 μM.
as §3
Test compounds were dissolved in dimethyl sulphoxide and diluted with assay buffer so that no more than 1% dimethyl sulphoxide was present. Test compound and enzyme were added to each well of a 96 well plate and allowed to equilibrate for 15 minutes at room temperature in an orbital shaker prior to the addition of substrate. Plates were then incubated for 2 hours at room temperature prior to the determination of fluorescence (substrate cleavage) using a fluorimeter at an excitation wavelength of 360 nm and emission wavelength of 460 nm.

MMP-2 = biological target: T3, MMP-2 (Homo sapiens, UniProt P08253); test: Inhibition of MMP-2, cleavage of fluorogenic peptide; type: biochemical; conditions: x = 2; read-out: MMP-2 inhibitor IC50
T3 construct: Catalytic domain MMP-2, MMP-3 and MMP-9 were prepared at Pfizer Central Research; made in house
T3 sequence (P08253 110-446 limits assumed): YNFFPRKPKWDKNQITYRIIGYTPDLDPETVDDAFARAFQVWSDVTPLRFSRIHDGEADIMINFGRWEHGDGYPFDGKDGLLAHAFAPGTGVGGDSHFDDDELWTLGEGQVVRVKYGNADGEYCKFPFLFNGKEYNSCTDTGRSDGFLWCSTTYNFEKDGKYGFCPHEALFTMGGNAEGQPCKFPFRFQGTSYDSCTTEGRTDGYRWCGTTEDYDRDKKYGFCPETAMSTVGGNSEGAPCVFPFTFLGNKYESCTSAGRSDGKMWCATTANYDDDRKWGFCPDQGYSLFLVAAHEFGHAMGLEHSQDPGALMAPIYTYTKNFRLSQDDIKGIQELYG
Experimental: as §1
(§4) The assays for MMPs 2, 3, 9, and 14 are based upon the original protocol described by Knight et al. (Fed.Euro.Biochem.Soc., 296 (3), 263-266; 1992) with the slight modifications given below.
as §2
(§5) The fluorogenic substrate used in this screen was Mca-Arg-Pro-Lys-Pro-Tyr-Ala-Nva-Trp-Met-Lys(Dnp)-NH2 (Bachem Ltd, Essex, UK) as originally described by Nagase et al (J.Biol.Chem., 269(33), 20952-20957, 1994). […] The final substrate concentration used in the assay was 5 μM. […]
(§6) Test compounds were dissolved in dimethyl sulphoxide and diluted with test buffer solution (as above) so that no more than 1% dimethyl sulphoxide was present. […] Plates were then incubated for 1 hour at 37° C. prior to determination of fluorescence using a fluorimeter (Fluostar; BMG LabTechnologies, Aylesbury, UK) at an excitation wavelength of 328 nm and emission wavelength of 393 nm.

[1] = test system: endothelial cell invasion of basement membrane; conditions: thereby inhibiting angiogenesis; cited from earlier work
MMP-14 = biological target: T4, MMP-14 (Homo sapiens, UniProt P50281); test: Inhibition of MMP-14, cleavage of fluorogenic peptide; type: biochemical; conditions: x = 14; read-out: MMP-14 inhibitor IC50
T4 construct: Catalytic domain MMP-14 was purchased from Prof Tschesche; purchased Prof Tschesche, Department of Biochemistry, Faculty of Chemistry, University of Bielefeld, Germany
Experimental: as §1, §4
Test compounds were dissolved in dimethyl sulphoxide and diluted with test buffer solution (as above) so that no more than 1% dimethyl sulphoxide was present. Test compound and enzyme were added to each well of a 96 well plate and allowed to equilibrate for 15 minutes at 37° C. in an orbital shaker prior to the addition of substrate. Plates were then incubated for 1 hour at 37° C. prior to determination of fluorescence using a fluorimeter (Fluostar; BMG LabTechnologies, Aylesbury, UK) at an excitation wavelength of 328 nm and emission wavelength of 393 nm.
Catalytic domain MMP-14 was purchased from Prof Tschesche, Department of Biochemistry, Faculty of Chemistry, University of Bielefeld, Germany. A 10 μM enzyme stock solution was activated for 20 minutes at 25° C. following the addition of 5 μg/ml of trypsin (Sigma, Dorset, UK). […]

MMP-9 = biological target: T5, MMP-9 (Homo sapiens, UniProt P14780); test: Inhibition of MMP-9, cleavage of fluorogenic peptide; type: biochemical; conditions: x = 9; read-out: MMP-9 inhibitor IC50
T5 construct: Catalytic domain MMP-2, MMP-3 and MMP-9 were prepared at Pfizer Central Research; made in house
T5 sequence (P14780 107-444 limits assumed): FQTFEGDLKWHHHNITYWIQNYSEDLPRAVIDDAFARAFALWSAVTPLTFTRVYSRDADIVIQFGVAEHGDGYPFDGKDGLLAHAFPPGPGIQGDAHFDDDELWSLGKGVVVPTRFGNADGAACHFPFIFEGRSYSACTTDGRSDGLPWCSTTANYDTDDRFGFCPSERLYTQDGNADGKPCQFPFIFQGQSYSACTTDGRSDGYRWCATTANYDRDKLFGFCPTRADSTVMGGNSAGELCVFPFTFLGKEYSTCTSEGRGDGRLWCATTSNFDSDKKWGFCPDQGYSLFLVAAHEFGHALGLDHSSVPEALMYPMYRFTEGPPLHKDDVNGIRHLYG
Experimental: as §1, §4, §2, §5, §6

MMP-13 = biological target: T6, MMP-13 (Homo sapiens, UniProt P45452); test: Inhibition of MMP-13, cleavage of fluorogenic peptide; type: biochemical; conditions: x = 13; read-out: MMP-13 inhibitor IC50
T6 construct: purchased PanVera Corporation (Madison, Wis.)
Experimental: as §1
Human recombinant MMP-13 was prepared by PanVera Corporation (Madison, Wis.) and characterized at Pfizer (Groton, Conn.). A 1.9 mg/ml stock was activated with 2 mM APMA for 2 hours at 37° C. MMP-13 was then diluted in assay buffer (50 mM Tris, 200 mM NaCl, 5 mM CaCl2, 20 μM ZnCl2 and 0.02% Brij 35) at pH 7.5 to a concentration of 5.3 nM. The final concentration of enzyme used in the assay was 1.3 nM.
The fluorogenic substrate used in this screen was Dnp-Pro-Cha-Gly-Cys(Me)-His-Ala-Lys(NMA)-NH2. The final substrate concentration used in the assay was 10 μM.
as §3
Test compounds were dissolved in dimethyl sulphoxide and diluted with assay buffer so that no more than 1% dimethyl sulphoxide was present. Test compound and enzyme were added to each well of a 96 well plate. The addition of substrate to each well initiated the reaction. Fluorescence intensity was determined on a 96 well plate fluorometer (Cytofluor II; PerSeptive Biosystems, Inc, Framingham, Mass.) at an excitation wavelength of 360 nm and emission wavelength of 460 nm.

SMILES: CNC(=O)[C@H](Cc1ccc(OC)cc1)NC(=O)[C@@H](CC(=O)NO)CC(C)C [SC44463]
- Inhibition of keratinocyte migration on a collagen type I matrix (keratinocyte migration): completely inhibited

SMILES: Cc1cc(CCC[C@H](CC(=O)O)C(=O)N[C@H](C(=O)N[C@H](C)c2ccccc2)C(C)(C)C)ccc1-c1ccccc1 [Example 1, (3R)-3-({[(1S)-2,2-dimethyl-1-({[(1R)-1-phenylethyl]amino}carbonyl)propyl]amino}carbonyl)-6-[(3-methyl-4-phenyl)phenyl]hexanoic acid]
- 3/2sel: Selectivity for MMP-3 over MMP-2 (MMP-3): 107
- pIC50 (MMP-3): 7.00
- pIC50 (MMP-12): 7.07
- pIC50 (MMP-2): 4.97

SMILES: CNC(=O)[C@H](Cc1ccccc1)NC(=O)[C@H](CC(C)C)[C@H](CSc1cccs1)C(=O)NO [BB94, (2S,3R)-5-methyl-3-{[(1S)-1-(methylcarbamoyl)-2-phenylethyl]carbamoyl}-2-[(2-thienylthio)methyl]hexanohydroxamic acid]
- Inhibition of endothelial cell invasion of basement membrane [1]: inhibits endothelial cell invasion of basement membrane

SMILES: C[C@@H](NC(=O)[C@@H](NC(=O)[C@H](CCCc1ccc(-c2ccccc2)c(Cl)c1)CC(=O)NO)C(C)(C)C)c1ccccc1 [Example 2, (2R)-2-{3-[3-Chloro-(4-phenyl)phenyl]propyl}-N1-[(1S)-2,2-dimethyl-1-({[(1R)-1-phenylethyl]amino}carbonyl)propyl]-(N4-hydroxy)butanediamide.]
- pIC50 (MMP-14): 5.25
- pIC50 (MMP-9): 5.72
- pIC50 (MMP-13): 6.89
